Assay: Wettability to binder: contact angle of binder liquid on molded product
Format: physicochemical
Conditions: for Contact angle with respect to molded product: immediately after dropping about 10 μL
From the text: The bulk molded product of Compound X used in Example 1, and Compound X, lactose and crystalline cellulose in Table 1 (this mixture being referred to as a granulation component) were examined on the effect of the surfactant on the wettability to a binder (10% PVP) solution for the molded product. As a binding liquid, a solution of a binder alone (A), a solution of binder+a 1% polysorbate 80 (B), and a solution of a binder+1% sodium lauryl sulfate (C) were used, and contact angle thereof were measured by using the following method.
About 300 mg of the bulk or the granulation component was weighed, and compression molded using a plain mortar and pestle of 10.0 mmφ by an autograph (manufactured by Shimadzu Co.) under the conditions of a tableting pressure of 10 kN/pestle and a tableting speed of 10 mm/min, thus to obtain a bulk molded product or a molded product of the granulation components. Onto the flat portion of each of the molded products, about 10 μL of the above-described binder liquid was dropped using a Microsyringe (manufactured by ITO SEISAKUSHO CO., LTD.), and the solid and liquid interface immediately after dropping was photographed by a digital microscope (Keyence). After photographing, using an accompanying software, the angle between the liquid surface and the solid surface was measured and referred to as an […].

For `COc1cccc([C@H]2O[C@H](CC(=O)Nc3cccc(CCC(=O)O)c3)C(=O)N(CC(C)(C)CO)c3ccc(Cl)cc32)c1OC` [Compound X, 3-[3-[[(3R,5S)-7-chloro-5-(2,3-dimethoxyphenyl)-1-(3-hydroxy-2,2-dimethylpropyl)-2-oxo-1,2,3,5-tetrahydro-4,1-benzoxazepine-3-yl]acetyl]aminophenyl]propionic acid], which “Contact angle with respect to molded product” value (shortened to “Contact angle”) (binder liquid (A): binder (10% PVP) alone) is on record?
Its value is 56 °.

And the “Contact angle” value (binder liquid (B): binder (10% PVP) + 1% polysorbate 80)?
The value was 33 °.

What about the “Contact angle” value (binder liquid (C): binder (10% PVP) + 1% sodium lauryl sulfate) of the same molecule?
Its value is 28 °.

And the “Wettability to the binder liquid” value (surfactant incorporated into the binder liquid)?
Its value is “remarkably improved”.
